From PubChem BioAssay (NCI)
“And” between values parts separate entries of the source, which are not always exact repeats. Identical values can stand only once.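 In this assay, cells in 96-well plates receive the compound at five concentrations for 48 hours. Endpoints are linearly interpolated between the surrounding concentrations. GI50 is the concentration that inhibits growth by half. TGI: concentration producing complete growth inhibition.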

Experiments:
Test in all cases: DTP human tumour cell line panel, 48 h
M14 melanoma = system: M14 melanoma
LOX IMVI melanoma = system: LOX IMVI melanoma
UO-31 renal = system: UO-31 renal
U251 CNS = system: U251 CNS
UACC-62 melanoma = system: UACC-62 melanoma
T-47D breast = system: T-47D breast
MCF7 breast = system: MCF7 breast
BT-549 breast = system: BT-549 breast
PC-3 prostate = system: PC-3 prostate
HS 578T breast = system: HS 578T breast

SMILES: O=c1cccccc1[O-].O=c1cccccc1[O-].O=c1cccccc1[O-].[Sm+3]
- TGI (M14 melanoma): > 100 µM
- TGI (LOX IMVI melanoma): > 100 µM
- TGI (UO-31 renal): > 100 µM
- GI50 (U251 CNS): 13.8 µM
- TGI (U251 CNS): > 100 µM
- TGI (UACC-62 melanoma): > 100 µM

SMILES: COC(=O)C1CCC(=O)N1/C(C)=N/NC(=O)Nc1ccc(Cl)c(Cl)c1 (stereo not drawn)
- TGI (M14 melanoma): > 100 µM
- TGI (LOX IMVI melanoma): > 100 µM
- TGI (UO-31 renal): > 100 µM
- TGI (U251 CNS): > 100 µM
- TGI (UACC-62 melanoma): > 100 µM

SMILES: CC(=O)[O-].[Mn+3].[O-]c1ccc(Cl)cc1C=NCCN=Cc1cc(Cl)ccc1[O-]
- GI50 (M14 melanoma): 71.6 µM
- TGI (M14 melanoma): > 100 µM
- GI50 (LOX IMVI melanoma): 38.6 µM
- TGI (LOX IMVI melanoma): > 100 µM
- GI50 (UO-31 renal): > 100 µM
- TGI (UO-31 renal): > 100 µM
- GI50 (U251 CNS): > 100 µM
- TGI (U251 CNS): > 100 µM
- GI50 (UACC-62 melanoma): > 100 µM
- TGI (UACC-62 melanoma): > 100 µM

SMILES: CCOc1ccccc1NC(=O)C1=C(C)NC(C)=C(C(=O)Nc2ccccc2OCC)C1c1ccc([N+](=O)[O-])cc1
- TGI (M14 melanoma): > 100 µM
- TGI (UO-31 renal): > 100 µM
- TGI (U251 CNS): > 100 µM
- TGI (UACC-62 melanoma): > 100 µM

SMILES: C/C(CC(=O)Nc1cccc([N+](=O)[O-])c1)=N\NC(=O)C[n+]1ccccc1
- TGI (M14 melanoma): > 100 µM
- TGI (LOX IMVI melanoma): > 100 µM
- TGI (UO-31 renal): > 100 µM
- TGI (U251 CNS): > 100 µM
- TGI (UACC-62 melanoma): > 100 µM

SMILES: O=C(CC1=Nc2nnc(-c3nnc4n3C(=O)C(CC(=O)C3CC3)=N4)n2C1=O)C1CC1
- TGI (M14 melanoma): > 100 µM
- TGI (LOX IMVI melanoma): > 100 µM
- TGI (UO-31 renal): > 100 µM
- TGI (U251 CNS): > 100 µM
- TGI (UACC-62 melanoma): > 100 µM

SMILES: COC(=O)c1sc(=NC(=S)N2CCCCC2)sc1C(=O)OC
- TGI (M14 melanoma): > 100 µM
- TGI (UO-31 renal): > 100 µM
- TGI (U251 CNS): > 100 µM
- TGI (UACC-62 melanoma): > 100 µM

SMILES: c1cncc(C2ONC3=NCCN32)c1 (stereo not drawn)
- GI50 (M14 melanoma): 64.3 µM
- TGI (M14 melanoma): > 100 µM
- GI50 (T-47D breast): 40 µM
- TGI (T-47D breast): > 100 µM
- GI50 (MCF7 breast): 17.5 µM
- TGI (MCF7 breast): > 100 µM
- GI50 (BT-549 breast): 22.9 µM
- TGI (BT-549 breast): 70 µM
- GI50 (UO-31 renal): 2.27 µM
- TGI (UO-31 renal): > 100 µM
- GI50 (PC-3 prostate): 30.8 µM
- TGI (PC-3 prostate): > 100 µM
- GI50 (U251 CNS): 16.5 µM
- TGI (U251 CNS): 64.5 µM
- GI50 (UACC-62 melanoma): 46.7 µM
- TGI (UACC-62 melanoma): > 100 µM

SMILES: COc1cc2cc3c(c(O)c2c(O)c1-c1c(OC)cc2cc4c(c(O)c2c1O)C(=O)O[C@H](C)C4)C(=O)O[C@H](C)C3
- GI50 (M14 melanoma): 25.7 µM
- TGI (M14 melanoma): 57 µM
- GI50 (T-47D breast): 23.3 µM
- TGI (T-47D breast): 57.2 µM
- GI50 (LOX IMVI melanoma): 18 µM
- TGI (LOX IMVI melanoma): 44.6 µM
- GI50 (UO-31 renal): > 100 µM
- TGI (UO-31 renal): > 100 µM
- GI50 (PC-3 prostate): 35.8 µM
- TGI (PC-3 prostate): > 100 µM
- GI50 (U251 CNS): 19.6 µM
- TGI (U251 CNS): 48.1 µM
- GI50 (UACC-62 melanoma): 17.1 µM
- TGI (UACC-62 melanoma): 32.5 µM

SMILES: COc1ccc2c(c1)[n+](=O)c(C(C)=O)c(C)n2[O-]
- TGI (M14 melanoma): > 100 µM
- TGI (LOX IMVI melanoma): > 100 µM
- TGI (UO-31 renal): > 100 µM
- TGI (U251 CNS): > 100 µM
- TGI (UACC-62 melanoma): > 100 µM

SMILES: COC(=O)[C@]1(C)CCC[C@]2(C)[C@@H]1CCC13C[C@@H](C=CO1)[C@@H](C)CC32O (stereo partly drawn)
- GI50 (M14 melanoma): 50.3 µM
- TGI (M14 melanoma): > 100 µM
- GI50 (MCF7 breast): 25.7 µM
- TGI (MCF7 breast): > 100 µM
- GI50 (LOX IMVI melanoma): > 100 µM
- TGI (LOX IMVI melanoma): > 100 µM
- GI50 (BT-549 breast): > 100 µM
- TGI (BT-549 breast): > 100 µM
- GI50 (UO-31 renal): > 100 µM
- TGI (UO-31 renal): > 100 µM
- GI50 (PC-3 prostate): 38 µM
- TGI (PC-3 prostate): > 100 µM
- GI50 (U251 CNS): > 100 µM
- TGI (U251 CNS): > 100 µM
- GI50 (HS 578T breast): 20.7 µM
- TGI (HS 578T breast): 76.5 µM
- GI50 (UACC-62 melanoma): > 100 µM
- TGI (UACC-62 melanoma): > 100 µM

SMILES: N#CCCN(CCC#N)c1ccc(C=Nc2ccc(F)cc2)cc1
- TGI (M14 melanoma): > 100 µM
- TGI (T-47D breast): > 100 µM
- TGI (MCF7 breast): > 100 µM
- TGI (LOX IMVI melanoma): > 100 µM
- TGI (BT-549 breast): > 100 µM
- TGI (UO-31 renal): > 100 µM
- TGI (PC-3 prostate): > 100 µM
- TGI (U251 CNS): > 100 µM
- TGI (UACC-62 melanoma): > 54.2 µM

SMILES: O=C(c1ccccc1)C(Br)C(Br)c1ccccc1 (stereo not drawn)
- GI50 (M14 melanoma): 2.01 µM
- TGI (M14 melanoma): 4.12 µM
- GI50 (T-47D breast): 2.59 µM
- TGI (T-47D breast): 6.26 µM
- GI50 (MCF7 breast): 1.79 µM
- TGI (MCF7 breast): 7.85 µM
- GI50 (LOX IMVI melanoma): 1.82 µM
- TGI (LOX IMVI melanoma): 3.41 µM
- GI50 (BT-549 breast): 12.8 µM
- TGI (BT-549 breast): 25.6 µM
- GI50 (UO-31 renal): 1.85 µM
- TGI (UO-31 renal): 3.87 µM
- GI50 (PC-3 prostate): 18.3 µM
- TGI (PC-3 prostate): 33.4 µM
- GI50 (U251 CNS): 8.15 µM
- TGI (U251 CNS): 20.9 µM
- GI50 (UACC-62 melanoma): 11.8 µM
- TGI (UACC-62 melanoma): 24.2 µM

SMILES: CC(=O)OCC1OC(n2c(=S)n(-c3ccccc3)c(=O)c3cc(Br)cc(Br)c32)C(OC(C)=O)C(OC(C)=O)C1OC(C)=O (stereo not drawn)
- GI50 (M14 melanoma): 28.6 µM and > 100 µM
- TGI (M14 melanoma): > 100 µM
- TGI (LOX IMVI melanoma): > 100 µM
- GI50 (UO-31 renal): > 100 µM and 42.9 µM
- TGI (UO-31 renal): > 100 µM
- GI50 (U251 CNS): 20 µM and 91.9 µM
- TGI (U251 CNS): > 100 µM
- TGI (UACC-62 melanoma): > 100 µM

SMILES: COc1ccc(-c2cc(-c3ccco3)c(C#N)c(=O)[nH]2)cc1
- TGI (M14 melanoma): > 100 µM
- TGI (LOX IMVI melanoma): > 100 µM
- TGI (UO-31 renal): > 100 µM
- TGI (U251 CNS): 40.1 µM
- TGI (UACC-62 melanoma): > 100 µM

SMILES: Nc1ccc(C(=O)/C=C/c2ccccc2O)cc1
- TGI (M14 melanoma): > 100 µM
- TGI (LOX IMVI melanoma): > 100 µM
- TGI (UO-31 renal): > 100 µM
- TGI (U251 CNS): > 100 µM
- TGI (UACC-62 melanoma): > 100 µM

SMILES: NC(N)=N/N=C/c1c(-c2ccc(Cl)c([N+](=O)[O-])c2)nc2sc3ccccc3n12
- GI50 (M14 melanoma): 0.136 µM
- TGI (M14 melanoma): 12 µM
- GI50 (LOX IMVI melanoma): 0.0923 µM
- TGI (LOX IMVI melanoma): 0.17 µM
- GI50 (BT-549 breast): 0.895 µM
- TGI (BT-549 breast): 2.12 µM
- GI50 (UO-31 renal): 23.6 µM
- TGI (UO-31 renal): > 50 µM
- GI50 (PC-3 prostate): 0.738 µM
- TGI (PC-3 prostate): 1.4 µM
- GI50 (U251 CNS): 0.0951 µM
- TGI (U251 CNS): 0.177 µM
- GI50 (HS 578T breast): 1.38 µM
- TGI (HS 578T breast): 2.91 µM
- GI50 (UACC-62 melanoma): 0.849 µM
- TGI (UACC-62 melanoma): 1.58 µM
